Experimental data published in US20110269695A1, “NOVEL ANTI-AGING PEPTIDES AND COSMETIC AND/OR PHARMACEUTICAL COMPOSITION CONTAINING SAME” (ISP INVESTMENTS, priority 2009, published 2011).
Where no end group is shown, it is not given here.

Key:
Clock protein [1] = experiment: Immunolabeling of Clock protein in skin biopsies ex vivo; type: cell-based, human; conditions: treated skin
Procedure: (§1) A study of the activating effect of the peptide SEQ ID no. 3 was carried out by evaluating the expression of Clock, Per-1 and BMAL-1 proteins in skin biopsies ex vivo.
(§2) Ex vivo studies by immunolabeling have made it possible to evidence the expression of Clock, Per-1 and BMAL-1 proteins in skin samples. Samples of human skin are cultured at the air/liquid interface. The peptide SEQ ID no. 3 diluted to 1% (from a 10^−4M solution) is applied topically to these samples for 48 hr.
(§3) Skin samples not treated with the peptide SEQ ID no. 3 serve as a control. The skin samples are fixed with 10% formaldehyde and enclosed in paraffin. Sectional cuts of 3 μm are then made with a microtome. The immunolabeling is carried out after removal of the paraffin and unmasking of the antigenic sites. The immunolabeling for the Clock protein is carried out by means of an antibody (ABcam) diluted 1/250 and a secondary antibody diluted 1/50 and coupled to a fluorochrome.
(§4) The slides are then mounted in a suitable medium and observed under epifluorescence microscope (Nikon Eclipse E600).

Clock protein [2] = experiment: Immunolabeling of Clock protein in skin samples aged artificially during culture; type: cell-based, human
Procedure: A study of the activating effect of the peptide SEQ ID no. 3 was carried out by evaluating the expression of the Clock protein in skin models, aged artificially during culture. The analysis was carried out after 62 hr and 134 hr of culturing.
Ex vivo studies by immunolabeling have made it possible to evidence the expression of the Clock protein in skin samples aged during culture. Samples of human skin are cultured at the air/liquid interface for 62 hr and 134 hr. The peptide SEQ ID no. 1 diluted to 1% (from a 10^−4M solution) is applied topically to these samples at a rate of two times per day during the period of the experiment.
as §3, with “μm are made with” for “μm are then made with”, “of an anti-rabbit antibody (ABcam)” for “of an antibody (ABcam)”
as §4

cultured fibroblasts = experiment: Beta-galactosidase (X-gal) senescence labeling of cultured fibroblasts; type: cell-based; conditions: peptide diluted to 1%, once a day, versus untreated control cells
Procedure: A study of the anti-aging effect of the peptide SEQ ID no. 3 was carried out by evaluating the activity of the beta-galactosidase on cultured fibroblasts in the short and long term. In fact, beta-galactosidase is known to be present in senescent cells whereas beta-galactosidase activity is not found in pre-senescent, quiescent or immortal cells.
Fibroblasts cultured in 8-well labtecks are kept for 2 weeks (short term effect) or 7 weeks (long term effect) in the presence or absence of the peptide SEQ ID no. 3, diluted to 1% (from a 10^−4M solution). The treatment is carried out once a day. The cells which were untreated, but kept in culture for 2 or 7 weeks per the requirements of the experiment serve as controls. On the day of labeling, the cells are rinsed, fixed in a mixture (2% glutaraldehyde-2% formaldehyde) for 3 minutes. The cells are rinsed and 300 μl of (5-bromo-4-chloro-3 indolyl b-D-galactosidase), known commonly as X-gal (substrate of beta-galactosidase), are applied. Incubation is carried out for 24 hr in an incubator in the presence of CO2, then the cells are rinsed and the labteck is quickly placed in a suitable medium. Observation is carried out under transmission microscope. The principle is simple: when the cells are senescent and contain beta-galactosidase, the X-gal substrate is cleaved into a blue, insoluble product.

BMAL-1 protein = experiment: Immunolabeling of BMAL-1 protein in skin biopsies ex vivo; type: cell-based, human; conditions: treated skin
Procedure: as §1, §2, §3
The immunolabeling for the BMAL-1 protein is carried out by a polyclonal antibody (Aviva Systems Biology) diluted 1/120 and a secondary antibody diluted 1/50 and coupled to a fluorochrome.
as §4

Per-1 protein = experiment: Immunolabeling of Per-1 protein in skin biopsies ex vivo; type: cell-based, human; conditions: treated skin
Procedure: as §1, §2, §3
The immunolabeling for the Per-1 protein is carried out by a polyclonal antibody (Cosmobio) diluted 1/100 and a secondary antibody diluted 1/50 and coupled to a fluorochrome.
as §4

Clock protein [3] = experiment: Western blot of Clock protein expression in cultured fibroblasts; type: cell-based
Procedure: A study of the activating effect of the peptide SEQ ID no. 2 was carried out by evaluating the expression of the Clock proteins by western blot in cultured fibroblasts. The technique of western blotting is a semi-quantitative method which makes it possible to evaluate the level of Clock proteins in cells.
Cultured fibroblasts are cultivated in containers with a diameter of 100 mm at 37° C. in a humidified atmosphere containing 5% CO2 for 18 hr in the presence or absence of the peptide SEQ ID no. 2, diluted to 1% (from a 10^−4M solution). The cells are rinsed and then removed from the support with the aid of an extraction buffer (20 mM TRIS, 150 mM NaCl, 10 mM EDTA, 0.2% triton […]) in the presence of a cocktail of protease inhibitors (Sigma). The proteins thus extracted are centrifuged at 4° C. at 10,000 rpm for 10 minutes, before being dosed by the BCA protein dosing kit (Pierce). The cellular lysates are mixed with a denaturing buffer and subjected to SDS-PAGE electrophoresis. The gel used is 4-12% Nupage (Invitrogen). The proteins are then transferred to a nitrocellulose membrane (Pal corporation). […] The quantitative evaluation of the proteins present in the cells was carried out using the chemiimager software (Alpha innotech Corporation USA).

Ser-Thr-Pro-NH2 [SEQ ID no. 3]
amount of Clock protein versus untreated skin (Clock protein [1]): greater
labeling of the Clock protein compared to untreated control, 62 hr (Clock protein [2]; after 62 hr of culturing): increased
labeling of the Clock protein compared to untreated control, 134 hr (Clock protein [2]; after 134 hr): largely increased
Beta-galactosidase activity (blue coloration), short term (cultured fibroblasts; 2 weeks): largely reduced
Beta-galactosidase activity (blue coloration), long term (cultured fibroblasts; 7 consecutive weeks): largely reduced
amount of BMAL-1 protein versus untreated skin (BMAL-1 protein): greater
amount of PER-1 protein versus untreated skin (Per-1 protein): greater

Val-Ser-Thr-Pro-Glu-NH2 (VSTPE-NH2) [SEQ ID no. 2]
Intensity (%) of Clock protein, Experiment 1 (Clock protein [3]; 1% treatment (from a 10^-4M solution), 18 hr, cultured fibroblasts, luminous intensity compared to untreated control (100%)): 154%
amount of Clock protein in the cultured fibroblasts (Clock protein [3]; peptide diluted to 1%, western blot): significantly increases
